These are literature values, as cited in US20160279187A1, “CALPAIN INHIBITORS FOR IBD AND COLORECTAL CANCER TREATMENT” (UNIVERSITY OF HAWAII, priority 2013, published 2016).

The structures appear in SMILES notation. Where a SMILES comes first, the peptide text is derived from it. The star is where a group is joined. Cbz = O=C(OCc1ccccc1)*; CH2F = FC*

This data set addresses T1, m-calpain (Homo sapiens, UniProt P17655).
T1 sequence (P17655 1-700): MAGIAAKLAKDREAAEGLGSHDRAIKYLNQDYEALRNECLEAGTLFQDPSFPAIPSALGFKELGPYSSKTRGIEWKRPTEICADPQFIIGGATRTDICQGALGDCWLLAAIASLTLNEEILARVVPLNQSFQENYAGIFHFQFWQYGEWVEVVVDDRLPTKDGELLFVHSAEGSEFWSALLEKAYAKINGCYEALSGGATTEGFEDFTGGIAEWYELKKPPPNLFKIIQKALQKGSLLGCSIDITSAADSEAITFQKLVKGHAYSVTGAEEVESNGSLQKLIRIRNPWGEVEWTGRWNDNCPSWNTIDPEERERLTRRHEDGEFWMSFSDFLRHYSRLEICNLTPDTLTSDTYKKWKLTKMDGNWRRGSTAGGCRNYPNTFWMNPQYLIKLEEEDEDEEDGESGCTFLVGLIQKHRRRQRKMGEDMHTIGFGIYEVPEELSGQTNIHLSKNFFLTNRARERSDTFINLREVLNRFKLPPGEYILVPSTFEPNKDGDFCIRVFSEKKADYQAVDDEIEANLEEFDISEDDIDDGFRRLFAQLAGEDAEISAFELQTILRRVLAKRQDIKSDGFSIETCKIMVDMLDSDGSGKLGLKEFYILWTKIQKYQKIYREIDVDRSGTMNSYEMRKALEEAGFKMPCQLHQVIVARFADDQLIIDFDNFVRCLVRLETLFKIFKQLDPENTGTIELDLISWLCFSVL
T1 sequence (P04632 1-268 partner): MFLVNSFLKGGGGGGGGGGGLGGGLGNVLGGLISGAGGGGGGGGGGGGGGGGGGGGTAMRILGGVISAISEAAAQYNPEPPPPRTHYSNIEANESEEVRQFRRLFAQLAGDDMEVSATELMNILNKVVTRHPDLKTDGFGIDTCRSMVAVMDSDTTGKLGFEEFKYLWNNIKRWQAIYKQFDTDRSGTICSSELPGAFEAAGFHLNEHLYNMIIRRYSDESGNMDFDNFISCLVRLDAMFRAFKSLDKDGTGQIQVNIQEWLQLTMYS
To be noted: on-target; cited from earlier work.

As for `CC(C)C[C@H](NC(=O)OCc1ccccc1)C(=O)N[C@@H](CC(C)C)C(=O)N[C@@H](Cc1ccc(O)cc1)C(=O)CF` [zLLY-CH2F, Z-LLY-CH2F] (Cbz-Leu-Leu-Tyr-CH2F), the “k2 rate constant, irreversible inhibition of m-calpain” value is recorded as “about 28,900 M-1 s-1”.
